Test results reported in ChEMBL document CHEMBL3991601, “The target landscape of clinical kinase drugs” (Science, 2017).
Activity calls are given as the source filed them.

Experiments:
[1] = molecular target: Adenylate kinase 2, mitochondrial (Homo sapiens, UniProt P54819)
[2] = molecular target: T1, ATP-dependent RNA helicase DDX42 (Homo sapiens, UniProt Q86XP3)
T1 sequence (Q86XP3 whole entry): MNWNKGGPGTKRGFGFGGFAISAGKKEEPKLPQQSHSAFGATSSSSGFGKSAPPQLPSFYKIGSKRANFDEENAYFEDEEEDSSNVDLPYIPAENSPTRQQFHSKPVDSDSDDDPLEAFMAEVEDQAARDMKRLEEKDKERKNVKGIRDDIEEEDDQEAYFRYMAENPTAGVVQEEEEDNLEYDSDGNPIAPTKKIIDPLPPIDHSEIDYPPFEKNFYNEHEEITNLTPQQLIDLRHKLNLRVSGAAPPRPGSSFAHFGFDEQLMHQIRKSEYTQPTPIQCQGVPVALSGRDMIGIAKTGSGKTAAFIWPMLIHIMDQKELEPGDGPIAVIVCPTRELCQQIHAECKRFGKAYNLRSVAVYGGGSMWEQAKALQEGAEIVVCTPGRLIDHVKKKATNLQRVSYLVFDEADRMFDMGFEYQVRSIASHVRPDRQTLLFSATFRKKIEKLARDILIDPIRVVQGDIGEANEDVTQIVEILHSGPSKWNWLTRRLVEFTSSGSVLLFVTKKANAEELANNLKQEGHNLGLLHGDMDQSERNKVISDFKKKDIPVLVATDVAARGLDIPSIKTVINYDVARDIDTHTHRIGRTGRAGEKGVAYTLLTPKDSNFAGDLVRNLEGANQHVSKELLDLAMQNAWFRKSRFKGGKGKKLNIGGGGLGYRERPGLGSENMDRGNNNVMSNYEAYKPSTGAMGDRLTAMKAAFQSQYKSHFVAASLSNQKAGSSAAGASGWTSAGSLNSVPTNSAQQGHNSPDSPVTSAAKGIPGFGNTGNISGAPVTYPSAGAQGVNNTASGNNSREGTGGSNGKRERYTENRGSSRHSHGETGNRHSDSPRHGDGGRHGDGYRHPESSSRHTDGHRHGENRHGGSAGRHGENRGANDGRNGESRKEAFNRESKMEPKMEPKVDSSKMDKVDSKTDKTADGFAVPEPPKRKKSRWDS

[3] = molecular target: T2, Electron transfer flavoprotein subunit beta (Homo sapiens, UniProt P38117)
T2 sequence (P38117 whole entry): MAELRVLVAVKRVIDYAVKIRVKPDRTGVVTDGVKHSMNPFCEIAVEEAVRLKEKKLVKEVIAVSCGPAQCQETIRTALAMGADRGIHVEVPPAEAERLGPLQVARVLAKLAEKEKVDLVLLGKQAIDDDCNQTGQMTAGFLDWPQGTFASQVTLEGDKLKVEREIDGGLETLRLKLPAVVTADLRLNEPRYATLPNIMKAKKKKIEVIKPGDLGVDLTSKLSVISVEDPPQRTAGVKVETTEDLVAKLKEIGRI

[4] = molecular target: T3, Phenylalanine--tRNA ligase beta subunit (Homo sapiens, UniProt Q9NSD9)
T3 sequence (Q9NSD9 whole entry): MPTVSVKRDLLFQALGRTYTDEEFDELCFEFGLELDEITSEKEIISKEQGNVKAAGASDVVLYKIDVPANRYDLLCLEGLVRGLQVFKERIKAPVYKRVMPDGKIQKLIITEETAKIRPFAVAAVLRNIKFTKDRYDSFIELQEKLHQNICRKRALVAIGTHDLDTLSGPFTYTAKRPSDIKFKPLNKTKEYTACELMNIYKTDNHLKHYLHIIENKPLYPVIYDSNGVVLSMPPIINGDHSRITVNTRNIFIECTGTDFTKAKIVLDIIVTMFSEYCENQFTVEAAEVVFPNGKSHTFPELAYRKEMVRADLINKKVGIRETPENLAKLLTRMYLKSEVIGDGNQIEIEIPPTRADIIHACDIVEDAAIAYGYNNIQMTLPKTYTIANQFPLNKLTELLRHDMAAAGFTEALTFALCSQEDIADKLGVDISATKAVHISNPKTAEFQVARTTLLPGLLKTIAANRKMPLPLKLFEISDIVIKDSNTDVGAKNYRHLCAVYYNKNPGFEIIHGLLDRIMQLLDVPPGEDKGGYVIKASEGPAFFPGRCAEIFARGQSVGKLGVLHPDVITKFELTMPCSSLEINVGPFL

[5] = molecular target: Structural maintenance of chromosomes protein 2 (Homo sapiens, UniProt O95347)
[6] = molecular target: T4, Succinate--CoA ligase [ADP-forming] subunit beta, mitochondrial (Homo sapiens, UniProt Q9P2R7)
T4 sequence (Q9P2R7 whole entry): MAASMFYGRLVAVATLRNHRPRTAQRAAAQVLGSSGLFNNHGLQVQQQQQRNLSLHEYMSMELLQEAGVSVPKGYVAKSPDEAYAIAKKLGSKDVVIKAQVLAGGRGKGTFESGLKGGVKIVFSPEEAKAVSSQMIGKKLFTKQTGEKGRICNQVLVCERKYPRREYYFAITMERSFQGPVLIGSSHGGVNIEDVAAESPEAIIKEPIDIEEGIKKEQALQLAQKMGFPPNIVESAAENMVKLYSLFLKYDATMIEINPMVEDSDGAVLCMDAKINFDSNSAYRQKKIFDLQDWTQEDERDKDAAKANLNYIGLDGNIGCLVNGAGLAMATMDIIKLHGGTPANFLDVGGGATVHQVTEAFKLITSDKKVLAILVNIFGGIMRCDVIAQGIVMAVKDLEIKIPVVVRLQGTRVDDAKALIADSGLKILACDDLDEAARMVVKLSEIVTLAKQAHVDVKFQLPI

[7] = molecular target: Mitogen-activated protein kinase kinase kinase 20 (Homo sapiens, UniProt Q9NYL2)
Aurora kinase A = molecular target: T5, Aurora kinase A (Homo sapiens, UniProt O14965)
T5 sequence (O14965 whole entry): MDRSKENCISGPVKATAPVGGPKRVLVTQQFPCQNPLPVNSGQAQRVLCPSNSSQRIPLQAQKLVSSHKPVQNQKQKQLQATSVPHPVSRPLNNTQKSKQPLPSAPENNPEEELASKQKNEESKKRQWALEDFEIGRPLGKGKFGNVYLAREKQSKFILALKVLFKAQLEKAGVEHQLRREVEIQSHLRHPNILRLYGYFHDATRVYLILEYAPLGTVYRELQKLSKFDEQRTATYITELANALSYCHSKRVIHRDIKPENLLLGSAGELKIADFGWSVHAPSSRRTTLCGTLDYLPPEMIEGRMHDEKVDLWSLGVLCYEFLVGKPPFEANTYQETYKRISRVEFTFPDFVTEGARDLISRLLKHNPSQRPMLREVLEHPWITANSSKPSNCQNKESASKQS
Also: in the data inactive means no Kd found up to 30 µM.

Mitogen-activated protein kinase kinase kinase 20, sequence (Q9NYL2 whole entry): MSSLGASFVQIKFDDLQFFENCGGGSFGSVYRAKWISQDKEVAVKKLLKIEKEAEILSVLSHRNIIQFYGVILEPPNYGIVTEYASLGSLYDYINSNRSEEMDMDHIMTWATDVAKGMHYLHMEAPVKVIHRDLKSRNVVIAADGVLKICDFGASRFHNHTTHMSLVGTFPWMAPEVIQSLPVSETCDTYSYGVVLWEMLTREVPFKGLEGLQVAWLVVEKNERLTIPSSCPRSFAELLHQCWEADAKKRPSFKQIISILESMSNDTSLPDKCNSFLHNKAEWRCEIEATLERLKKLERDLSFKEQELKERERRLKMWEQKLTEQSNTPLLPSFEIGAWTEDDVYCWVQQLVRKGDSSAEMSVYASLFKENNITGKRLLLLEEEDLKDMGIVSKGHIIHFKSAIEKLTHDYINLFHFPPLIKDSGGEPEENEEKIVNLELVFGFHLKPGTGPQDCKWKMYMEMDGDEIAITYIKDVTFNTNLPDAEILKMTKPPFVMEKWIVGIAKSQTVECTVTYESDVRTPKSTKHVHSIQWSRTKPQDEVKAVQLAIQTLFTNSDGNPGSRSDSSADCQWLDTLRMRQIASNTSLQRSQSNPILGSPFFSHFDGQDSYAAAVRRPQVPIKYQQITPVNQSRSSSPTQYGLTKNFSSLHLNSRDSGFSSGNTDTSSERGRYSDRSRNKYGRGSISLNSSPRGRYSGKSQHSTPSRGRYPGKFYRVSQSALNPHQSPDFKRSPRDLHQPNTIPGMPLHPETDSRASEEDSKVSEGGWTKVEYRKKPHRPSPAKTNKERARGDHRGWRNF
Structural maintenance of chromosomes protein 2, sequence (O95347 whole entry): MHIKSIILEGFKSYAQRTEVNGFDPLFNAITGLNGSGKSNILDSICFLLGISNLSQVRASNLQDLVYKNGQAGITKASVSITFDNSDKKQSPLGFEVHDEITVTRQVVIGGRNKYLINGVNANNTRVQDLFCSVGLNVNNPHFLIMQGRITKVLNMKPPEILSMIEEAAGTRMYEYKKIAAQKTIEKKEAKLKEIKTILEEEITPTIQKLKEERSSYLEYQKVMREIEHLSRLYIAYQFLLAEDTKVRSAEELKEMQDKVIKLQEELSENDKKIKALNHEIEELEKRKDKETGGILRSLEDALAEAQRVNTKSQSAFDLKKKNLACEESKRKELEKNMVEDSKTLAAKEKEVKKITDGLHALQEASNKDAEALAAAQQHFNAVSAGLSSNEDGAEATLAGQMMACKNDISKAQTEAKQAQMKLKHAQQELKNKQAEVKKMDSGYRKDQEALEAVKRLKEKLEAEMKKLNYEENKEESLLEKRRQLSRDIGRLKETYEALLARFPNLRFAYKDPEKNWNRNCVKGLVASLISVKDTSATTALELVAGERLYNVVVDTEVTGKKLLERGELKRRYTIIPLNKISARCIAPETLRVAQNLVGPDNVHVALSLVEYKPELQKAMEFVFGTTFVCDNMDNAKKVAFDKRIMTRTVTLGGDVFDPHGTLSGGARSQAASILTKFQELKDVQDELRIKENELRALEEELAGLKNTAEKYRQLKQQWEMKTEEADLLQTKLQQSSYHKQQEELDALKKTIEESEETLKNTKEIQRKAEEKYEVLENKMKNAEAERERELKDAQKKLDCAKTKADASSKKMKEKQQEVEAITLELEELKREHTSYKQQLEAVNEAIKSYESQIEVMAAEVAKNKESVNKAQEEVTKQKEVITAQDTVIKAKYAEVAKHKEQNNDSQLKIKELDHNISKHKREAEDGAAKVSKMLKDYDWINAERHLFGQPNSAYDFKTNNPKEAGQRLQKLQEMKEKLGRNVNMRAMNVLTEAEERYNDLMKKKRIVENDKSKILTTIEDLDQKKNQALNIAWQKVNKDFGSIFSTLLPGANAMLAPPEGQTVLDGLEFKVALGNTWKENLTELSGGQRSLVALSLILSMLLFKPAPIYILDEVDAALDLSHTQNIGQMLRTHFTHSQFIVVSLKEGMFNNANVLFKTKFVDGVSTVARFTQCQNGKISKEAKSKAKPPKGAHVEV

Row | SMILES | Kd [1] | Kd [2] | Kd [3] | Kd [4] | Kd [5] | Kd [6] | Kd [7] | Kd (Aurora kinase A)
1 | Cn1cc(-c2[nH]c3cc(NC(=O)[C@H](N)C4CCCCC4)cc4c3c2C=NNC4=O)cn1 | > 30 µM (inactive) | > 30 µM (inactive) | > 30 µM (inactive) | > 30 µM (inactive) | > 30 µM (inactive) | > 30 µM (inactive) | > 30 µM (inactive) | 
2 | Cc1cc(Nc2nc(N[C@@H](C)c3ncc(F)cn3)ncc2Cl)n[nH]1 [AZD-1480] | > 30 µM (inactive) | > 30 µM (inactive) | > 30 µM (inactive) | > 30 µM (inactive) | > 30 µM (inactive) |  | > 30 µM (inactive) | 
3 | COc1cc2nccc(Oc3ccc(NC(=O)C4(C(=O)Nc5ccc(F)cc5)CC4)cc3)c2cc1OC [CABOZANTINIB] | > 30 µM (inactive) | > 30 µM (inactive) | > 30 µM (inactive) | > 30 µM (inactive) | > 30 µM (inactive) | > 30 µM (inactive) | > 30 µM (inactive) | 
4 | COc1cc2c(Oc3ccc4[nH]c(C)cc4c3F)ncnc2cc1OCCCN1CCCC1 [CEDIRANIB] | > 30 µM (inactive) | > 30 µM (inactive) | > 30 µM (inactive) | > 30 µM (inactive) | > 30 µM (inactive) | > 30 µM (inactive) |  | 
5 | C[C@]1(O)C[C@@H](c2nc(-c3ccc4ccc(-c5ccccc5)nc4c3)c3c(N)nccn32)C1 [LINSITINIB] | > 30 µM (inactive) | > 30 µM (inactive) | > 30 µM (inactive) | > 30 µM (inactive) | > 30 µM (inactive) | > 30 µM (inactive) |  | 
6 | CN(c1ncccc1CNc1nc(Nc2ccc3c(c2)CC(=O)N3)ncc1C(F)(F)F)S(C)(=O)=O [PF-00562271] | > 30 µM (inactive) | > 30 µM (inactive) | > 30 µM (inactive) | > 30 µM (inactive) | > 30 µM (inactive) | > 30 µM (inactive) |  | 
7 | COc1cc(F)c(F)c(Nc2ccc(I)cc2F)c1NS(=O)(=O)C1(C[C@H](O)CO)CC1 [REFAMETINIB] | > 30 µM (inactive) |  | > 30 µM (inactive) | > 30 µM (inactive) | > 30 µM (inactive) | > 30 µM (inactive) | > 30 µM (inactive) | > 30 µM (inactive)
8 | COc1cc2c(N3CCN(C(=O)Nc4ccc(OC(C)C)cc4)CC3)ncnc2cc1OCCCN1CCCCC1 [TANDUTINIB] | > 30 µM (inactive) | > 30 µM (inactive) | > 30 µM (inactive) | 0.006 µM | > 30 µM (inactive) |  |  | 

Now from value to compound, other results behind:

Row | Kd [1] | Kd [2] | Kd [3] | Kd [4] | Kd [5] | Kd [6] | Kd [7] | SMILES | Kd (Aurora kinase A)
9 | > 30 µM (inactive) | > 30 µM (inactive) | > 30 µM (inactive) | > 30 µM (inactive) | > 30 µM (inactive) |  |  | CN(C)C/C=C/C(=O)Nc1cc2c(Nc3ccc(F)c(Cl)c3)ncnc2cc1O[C@H]1CCOC1 [AFATINIB] | 
10 | > 30 µM (inactive) | > 30 µM (inactive) | > 30 µM (inactive) | > 30 µM (inactive) | > 30 µM (inactive) | > 30 µM (inactive) | > 30 µM (inactive) | CCN(CCCOc1ccc2c(Nc3cc(CC(=O)Nc4cccc(F)c4)n[nH]3)ncnc2c1)CCOP(=O)(O)O [BARASERTIB] | 
11 | > 30 µM (inactive) | > 30 µM (inactive) | > 30 µM (inactive) | > 30 µM (inactive) | > 30 µM (inactive) | > 30 µM (inactive) |  | C[C@@]1(C(=O)Nc2ccc(F)nc2)CCCN1c1nc(Nc2cc(C3CC3)n[nH]2)c2cccn2n1 [BMS-754807] | 
12 | > 30 µM (inactive) | > 30 µM (inactive) | > 30 µM (inactive) | > 30 µM (inactive) | > 30 µM (inactive) | > 30 µM (inactive) |  | CC1(C)CNc2cc(NC(=O)c3cccnc3NCc3ccncc3)ccc21 [MOTESANIB] | 
13 | > 30 µM (inactive) | > 30 µM (inactive) | > 30 µM (inactive) | > 30 µM (inactive) | 0.209 µM | > 30 µM (inactive) |  | Cn1cnc2c(F)c(Nc3ccc(Br)cc3Cl)c(C(=O)NOCCO)cc21 [SELUMETINIB] | 
14 | > 30 µM (inactive) |  | > 30 µM (inactive) | > 30 µM (inactive) | > 30 µM (inactive) | > 30 µM (inactive) | > 30 µM (inactive) | O=C(O)c1ccc2c(c1)nc(Nc1cccc(Cl)c1)c1ccncc12 [SILMITASERTIB] | > 30 µM (inactive)
